{
  "source": "patent US20230255953A1",
  "about": "“USE OF ROLUPERIDONE IN PREVENTING RELAPSE IN SCHIZOPHRENIA PATIENTS” (Minerva Neurosciences, Inc., priority 2022, published 2023)",
  "key": {"schizophrenia patient": {"system": "schizophrenia patient", "test": "Case report Patient X: Roluperidone monotherapy over 2+ years", "format": "in vivo, human", "settings": "64 mg/day monotherapy, two years", "protocol": "Patient X presented with flat effect and restricted emotional expression, poor motivation to do much more than watch television and occasionally participate in occupational therapy for a few hours a week. Patient could not fully concentrate enough to even read. During the course of monotherapy with Roluperidone (64 mg/day), patient saw gradual improvement in their negative and cognitive symptoms. This allowed the patient to find employment. Their affect is no longer restricted and they read full novels on a regular basis with no trouble concentrating, and enjoys and looks forward to all their various daily activities."}, "serotoninergic 5-HT2A": {"biological_target": "serotoninergic 5-HT2A (Homo sapiens, UniProt P28223)", "sequence (P28223 whole entry)": "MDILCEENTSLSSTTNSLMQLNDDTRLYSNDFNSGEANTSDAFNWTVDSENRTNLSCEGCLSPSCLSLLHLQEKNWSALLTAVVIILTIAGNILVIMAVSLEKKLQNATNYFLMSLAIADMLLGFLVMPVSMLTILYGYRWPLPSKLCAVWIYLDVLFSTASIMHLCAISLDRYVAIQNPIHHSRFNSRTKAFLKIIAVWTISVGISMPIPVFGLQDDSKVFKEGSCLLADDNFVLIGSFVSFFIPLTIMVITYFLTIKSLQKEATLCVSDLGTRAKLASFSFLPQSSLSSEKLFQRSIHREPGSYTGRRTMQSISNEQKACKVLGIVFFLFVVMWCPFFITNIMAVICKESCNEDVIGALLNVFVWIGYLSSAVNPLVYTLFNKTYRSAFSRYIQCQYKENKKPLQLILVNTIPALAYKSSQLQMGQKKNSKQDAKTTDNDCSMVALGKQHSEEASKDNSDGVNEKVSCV", "settings": "background statement; cited from earlier work"}, "[1]": {"system": "patients with negative symptoms of schizophrenia", "test": "Study #2 (MIN-101C07): Total Verbal Fluency", "format": "in vivo, human", "settings": "Week 12 DB, ITT", "source_text": "(§1) Study #2 (also referred to as “MIN101C07”) was a Phase 3, randomized, DB, placebo-controlled, parallel-group 12-week study to evaluate the efficacy and safety of Roluperidone in patients ≥18 years to ≤55 years with negative symptoms of schizophrenia, followed by a 40-week OL extension. The study consisted of a pretreatment screening period of up to 28 days (including an antipsychotic medication washout period), a 12-week, DB, placebo-controlled period, and a 40-week OL period. Eligible patients (with moderate to severe negative symptoms of schizophrenia and stable positive symptoms but without severe symptoms of suspiciousness, agitation, hostility, uncooperativeness, or poor impulse control) were randomized 1:1:1 to receive Roluperidone 32 mg QD, Roluperidone 64 mg QD (GR01/B formulation, see U.S. Pat. No. 11,464,744), or placebo, orally, for 12 weeks. […] During the 40-week OL treatment extension, patients who were initially randomized to Roluperidone 32 mg or 64 mg continued treatment with the same dose, while patients who were initially randomized to placebo crossed over to Roluperidone 32 mg or 64 mg in a 1:1 ratio."}, "[2]": {"system": "patients with negative symptoms of schizophrenia", "test": "Study #2 (MIN-101C07): Personal and Social Performance (PSP)", "format": "in vivo, human", "design": "key to PSP total score, LS mean difference vs placebo in change from Baseline / Mean change in PSP Total score from Active Baseline / Change from Baseline LS Mean: PSP Total Score (ITT) / Change from Baseline LS Mean: PSP Total Score (mITT): PSP Total score points (1–100 scale, higher = better functioning)", "settings": "for Change from Baseline LS Mean: PSP Total Score (ITT) / Change from Baseline LS Mean: PSP domain Disturbing and Aggressive Behaviors / Change from Baseline LS Mean: PSP domain Personal and Social Relationships / Change from Baseline LS Mean: PSP domain Self-Care / Change from Baseline LS Mean: PSP domain Socially Useful Activities / Effect Size (Cohen's d) vs Placebo: PSP Total Score (ITT) / Effect Size (Cohen's d) vs Placebo: PSP domain Disturbing and Aggressive Behaviors / Effect Size (Cohen's d) vs Placebo: PSP domain Personal and Social Relationships / Effect Size (Cohen's d) vs Placebo: PSP domain Self-Care / Effect Size (Cohen's d) vs Placebo: PSP domain Socially Useful Activities: ITT; for Mean change in PSP Total score from Active Baseline: Week 52, OL", "source_text": "The PSP is a validated clinician-rated scale intended to reflect real-life situations that measures personal and social functioning in 4 domains: (a) socially useful activities, (b) personal and social relationships, (c) self-care, and (d) disturbing and aggressive behaviors. The score is based on the assessment of a patient's performance in the 4 domains. The PSP Total score is a single measurement of functioning ranging from 1 to 100, where a higher score represents better functioning. A score of 91 to 100 indicates excellent functioning in all 4 main areas; the patient is held in high consideration for their good qualities, copes adequately with life problems, and is involved in a wide range of interests and activities. A score of 1 to 10 indicates a lack of autonomy in basic functioning with extreme behaviors but without survival risk (score 6 to 10) or with survival risk (score 1 to 5). […] Review of the relevant scientific literature and the analysis of the psychometric properties of the 4 domains that result in the generation of the PSP Total score were supportive of the appropriateness and cross-cultural applicability of the use of the PSP in drug development for the indication of negative symptoms of schizophrenia The PSP was assessed at the timepoints described in Table 6. The changes from Baseline in the PSP Total score and individual domain scores after 12 weeks of treatment were exploratory efficacy endpoints in Study MIN-101C03, and the Total score was the key secondary efficacy endpoint and the PSP domain scores were exploratory endpoints in Study MIN-101C07.\nas §1"}},
  "data": [
    {"substance": "1H-Isoindol-1-one,2-[ [1-[2-(4-fluorophenyl)-2-oxoethyl]-4-piperidinyl]methyl]-2,3-dihydro-, hydrochloride, hydrate (1:1:2) [Roluperidone]", "values": [
      {"measurement": "Relapse under monotherapy", "setting": "schizophrenia patient", "value": "has not had a relapse"},
      {"measurement": "Antagonistic activity", "setting": "serotoninergic 5-HT2A", "value": "antagonistic activities"},
      {"measurement": "Change from Baseline LS Mean: Total Verbal Fluency (sum of 3 trials)", "setting": "[1]; 32 mg QD", "value": 3.9},
      {"measurement": "Effect Size (Cohen's d) vs Placebo: Total Verbal Fluency", "setting": "[1]; 32 mg QD", "value": 0.21},
      {"measurement": "Change from Baseline LS Mean: Total Verbal Fluency (sum of 3 trials)", "setting": "[1]; 64 mg QD", "value": 1.7},
      {"measurement": "Effect Size (Cohen's d) vs Placebo: Total Verbal Fluency", "setting": "[1]; 64 mg QD", "value": "−0.10"},
      {"measurement": "Effect Size (Cohen's w) vs Placebo: 7-Point improvement in PSP Total Score responders", "setting": "[2]; 32 mg QD, Week 12 DB", "value": 0.03},
      {"measurement": "Effect Size (Cohen's w) vs Placebo: 10-Point improvement in PSP Total Score responders", "setting": "[2]; 32 mg QD, Week 12 DB", "value": 0.01},
      {"measurement": "Number of Patients with 7-Point improvement in PSP Total Score at Week 12", "setting": "[2]; 32 mg QD, Week 12 DB", "value": "37/116"},
      {"measurement": "Number of Patients with 10-Point improvement in PSP Total Score at Week 12", "setting": "[2]; 32 mg QD, Week 12 DB", "value": "26/116"},
      {"measurement": "Patients with 7-Point improvement in PSP Total Score at Week 12 (%)", "setting": "[2]; 32 mg QD, Week 12 DB", "value": "(32%)"},
      {"measurement": "Patients with 10-Point improvement in PSP Total Score at Week 12 (%)", "setting": "[2]; 32 mg QD, Week 12 DB", "value": "(22%)"},
      {"measurement": "Change from Baseline LS Mean: PSP Total Score (ITT)", "setting": "[2]; 32 mg QD, Week 12 DB", "value": 4.5},
      {"measurement": "Change from Baseline LS Mean: PSP domain Disturbing and Aggressive Behaviors", "setting": "[2]; 32 mg QD, Week 12 DB", "value": 0.0},
      {"measurement": "Change from Baseline LS Mean: PSP domain Personal and Social Relationships", "setting": "[2]; 32 mg QD, Week 12 DB", "value": "−0.4"},
      {"measurement": "Change from Baseline LS Mean: PSP domain Self-Care", "setting": "[2]; 32 mg QD, Week 12 DB", "value": "−0.4"},
      {"measurement": "Change from Baseline LS Mean: PSP domain Socially Useful Activities", "setting": "[2]; 32 mg QD, Week 12 DB", "value": "−0.3"},
      {"measurement": "Effect Size (Cohen's d) vs Placebo: PSP Total Score (ITT)", "setting": "[2]; 32 mg QD, Week 12 DB", "value": 0.07},
      {"measurement": "Effect Size (Cohen's d) vs Placebo: PSP domain Disturbing and Aggressive Behaviors", "setting": "[2]; 32 mg QD, Week 12 DB", "value": 0.00},
      {"measurement": "Effect Size (Cohen's d) vs Placebo: PSP domain Personal and Social Relationships", "setting": "[2]; 32 mg QD, Week 12 DB", "value": 0.15},
      {"measurement": "Effect Size (Cohen's d) vs Placebo: PSP domain Self-Care", "setting": "[2]; 32 mg QD, Week 12 DB", "value": 0.15},
      {"measurement": "Effect Size (Cohen's d) vs Placebo: PSP domain Socially Useful Activities", "setting": "[2]; 32 mg QD, Week 12 DB", "value": 0.02},
      {"measurement": "Change from Baseline LS Mean: PSP Total Score (mITT)", "setting": "[2]; 32 mg QD, Week 12 DB", "value": 4.4},
      {"measurement": "Effect Size (Cohen's d) vs Placebo: PSP Total Score (mITT)", "setting": "[2]; 32 mg QD, Week 12 DB", "value": 0.07},
      {"measurement": "Effect Size (Cohen's w) vs Placebo: 7-Point improvement in PSP Total Score responders", "setting": "[2]; 64 mg QD, Week 12 DB", "value": 0.13},
      {"measurement": "Effect Size (Cohen's w) vs Placebo: 10-Point improvement in PSP Total Score responders", "setting": "[2]; 64 mg QD, Week 12 DB", "value": 0.10},
      {"measurement": "Number of Patients with 7-Point improvement in PSP Total Score at Week 12", "setting": "[2]; 64 mg QD, Week 12 DB", "value": "50/122"},
      {"measurement": "Number of Patients with 10-Point improvement in PSP Total Score at Week 12", "setting": "[2]; 64 mg QD, Week 12 DB", "value": "37/122"},
      {"measurement": "Change from Baseline LS Mean: PSP Total Score (ITT)", "setting": "[2]; 64 mg QD, Week 12 DB", "value": 6.1},
      {"measurement": "Change from Baseline LS Mean: PSP domain Disturbing and Aggressive Behaviors", "setting": "[2]; 64 mg QD, Week 12 DB", "value": 0.0},
      {"measurement": "Change from Baseline LS Mean: PSP domain Personal and Social Relationships", "setting": "[2]; 64 mg QD, Week 12 DB", "value": "−0.3"},
      {"measurement": "Change from Baseline LS Mean: PSP domain Self-Care", "setting": "[2]; 64 mg QD, Week 12 DB", "value": "−0.3"},
      {"measurement": "Change from Baseline LS Mean: PSP domain Socially Useful Activities", "setting": "[2]; 64 mg QD, Week 12 DB", "value": "−0.4"},
      {"measurement": "Effect Size (Cohen's d) vs Placebo: PSP Total Score (ITT)", "setting": "[2]; 64 mg QD, Week 12 DB", "value": 0.27},
      {"measurement": "Effect Size (Cohen's d) vs Placebo: PSP domain Disturbing and Aggressive Behaviors", "setting": "[2]; 64 mg QD, Week 12 DB", "value": "−0.07"},
      {"measurement": "Effect Size (Cohen's d) vs Placebo: PSP domain Personal and Social Relationships", "setting": "[2]; 64 mg QD, Week 12 DB", "value": 0.00},
      {"measurement": "Effect Size (Cohen's d) vs Placebo: PSP domain Self-Care", "setting": "[2]; 64 mg QD, Week 12 DB", "value": 0.04},
      {"measurement": "Effect Size (Cohen's d) vs Placebo: PSP domain Socially Useful Activities", "setting": "[2]; 64 mg QD, Week 12 DB", "value": 0.18},
      {"measurement": "Change from Baseline LS Mean: PSP Total Score (mITT)", "setting": "[2]; 64 mg QD, Week 12 DB", "value": 6.2},
      {"measurement": "Effect Size (Cohen's d) vs Placebo: PSP Total Score (mITT)", "setting": "[2]; 64 mg QD, Week 12 DB", "value": 0.29},
      {"measurement": "PSP total score, LS mean difference vs placebo in change from Baseline", "setting": "[2]; 64 mg, Week 12, ITT", "value": 2.2},
      {"measurement": "PSP Total score, course in OL period", "setting": "[2]; OL period", "value": "continued improvement was seen"},
      {"measurement": "Mean change in PSP Total score from Active Baseline", "setting": "[2]; placebo to 32 mg group", "value": 11.7},
      {"measurement": "Mean change in PSP Total score from Active Baseline", "setting": "[2]; placebo to 64 mg group", "value": 11.8}
    ]}
  ]
}
